Source: patent US20190111059A1, “COMPOSITIONS AND METHODS FOR TREATING AUTISM SPECTRUM DISORDER” (Marinus Pharmaceuticals, Inc., priority 2017, published 2019)
Counter-ions that a name gives are not always drawn.

Experiments:
[1] = system: children with non-syndromic autism spectrum disorder (ASD) and language impairment; test: Randomized placebo-controlled trial: Behavioral Assessment System for Children (BASC); type: in vivo, human; settings: for BASC Internalizing problems, estimated effect: calcium salt
Procedure: The Behavioral Assessment System for Children 2nd Edition (“BASC”) ranges from 185 to 306 items and is validated in ASD. Each item is rated 0 to 3 with higher scores indicating greater severity. Standardized T-Scores (mean 50, standard deviation 10) range 20-120 for externalizing, internalizing and behavioral symptoms and 10-90 for adaptive skills. This two-arm double-blind randomized placebo-controlled parallel study with a 1:1 allocation was performed at Arkansas Children's Research Institute (Little Rock, Ark., USA) from 4 Jun. 2012 to 22 Nov. 2013. Parent and teacher questionnaires were requested at baseline and 6 and 12 weeks after starting treatment. Parents were asked to deliver baseline questionnaires to teachers or therapists. After the first visit, questionnaires were mailed to the parents and teachers at least 1 week prior to the target date of completion. Parents were asked to bring the completed teacher and parent 12-week questionnaires to the final assessment. Other questionnaires were returned in a preaddressed postage-paid envelope. The target dose of the intervention (INN: DL folinic acid calcium salt; USAN: leucovorin calcium) was 2 mg kg^−1 per day (maximum 50 mg per day) in two equally divided doses with half of the target dose given during the first 2 weeks. Dye-free, milk-product-free, vegetarian capsules were provided in three strengths (5, 10 and 25 mg) by Lee Silsby Compounding Pharmacy (Cleveland Heights, Ohio, USA). Certificate of analysis was provided for each capsule strength by an independent analytical service (Eagle Analytical Services, Houston, Tex., USA) for each batch of capsules produced. In all cases, potency was at least 99%. Secondary outcomes. Secondary outcome measures included the Ohio Autism Clinical Impression Scale (OACIS), Vineland Adaptive Behavior Scale 2nd Edition (VABS) Survey Interview Form and several questionnaires. Parents and teachers were asked to complete the Aberrant Behavior Checklist (ABC), Social Responsiveness Scale (SRS) and Behavioral Assessment System for Children 2nd Edition (BASC). Only parents were asked to complete the Autism Impact Measure (AIM) and Autism Symptoms Questionnaire (ASQ). Secondary outcome measures were analyzed using the mixed-model regression. Because of the large number of secondary outcomes, correction for multiple comparisons was conducted using the false discovery rate.

[2] = system: children with ASD and low CSF folate concentrations; settings: high-dose; case reports and series; cited from earlier work
[3] = system: children with ASD who were positive for at least one FRAA; test: Controlled open-label study of high-dose folinic acid (Example 1); type: in vivo, human; settings: 2 mg kg^−1 per day in two divided doses, maximum 50 mg per day
[4] = system: children with non-syndromic autism spectrum disorder (ASD) and language impairment; test: Randomized placebo-controlled trial: Ohio Autism Clinical Impression Scale (OACIS); type: in vivo, human; settings: lower = less severity
Procedure: The Ohio Autism Clinical Impression Scale (“OACIS”) is an observer-rated scale sensitive to clinically meaningful changes in ASD symptoms. […] Severity of each symptom was rated by the first author at baseline and at the final assessment by observing the entire assessment of verbal communication. In validation studies a 0.5-point change was considered clinically meaningful. This two-arm double-blind randomized placebo-controlled parallel study with a 1:1 allocation was performed at Arkansas Children's Research Institute (Little Rock, Ark., USA) from 4 Jun. 2012 to 22 Nov. 2013. Those confirmed to have language impairment were randomized to the folinic acid or placebo group and a fasting blood sample was obtained. Randomization was performed using a random number generator with a block size of four. The research pharmacists had exclusive access to the randomization allocation. After breakfast, the participants returned for language, developmental and behavioral assessments. Following these assessments the family was given the 12 weeks of the intervention and was instructed on its administration. Language, developmental and behavioral assessments were repeated after 12 weeks of treatment. The target dose of the intervention (INN: DL folinic acid calcium salt; USAN: leucovorin calcium) was 2 mg kg^−1 per day (maximum 50 mg per day) in two equally divided doses with half of the target dose given during the first 2 weeks. Dye-free, milk-product-free, vegetarian capsules were provided in three strengths (5, 10 and 25 mg) by Lee Silsby Compounding Pharmacy (Cleveland Heights, Ohio, USA). Certificate of analysis was provided for each capsule strength by an independent analytical service (Eagle Analytical Services, Houston, Tex., USA) for each batch of capsules produced. In all cases, potency was at least 99%. Secondary outcomes. Secondary outcome measures included the Ohio Autism Clinical Impression Scale (OACIS), Vineland Adaptive Behavior Scale 2nd Edition (VABS) Survey Interview Form and several questionnaires. Parents and teachers were asked to complete the Aberrant Behavior Checklist (ABC), Social Responsiveness Scale (SRS) and Behavioral Assessment System for Children 2nd Edition (BASC). Only parents were asked to complete the Autism Impact Measure (AIM) and Autism Symptoms Questionnaire (ASQ). Secondary outcome measures were analyzed using the mixed-model regression. Because of the large number of secondary outcomes, correction for multiple comparisons was conducted using the false discovery rate.

[5] = vs placebo, mixed-model regression, lower = better
[6] = 2 mg kg^−1 per day, 12 weeks, baseline 4.4
[7] = vs placebo, mixed-model regression

For `Nc1nc2c(c(=O)[nH]1)N(C=O)C(CNc1ccc(C(=O)N[C@@H](CCC(=O)O)C(=O)O)cc1)CN2` (mixture of isomers) [Folinic acid, DL folinic acid calcium salt], the “BASC Adaptive skills, 12-week assessment mean” value ([1]; 2 mg kg^−1 per day, 12 weeks, baseline 24.5, higher = better) was 27.8 T-Scores, the “BASC Internalizing problems, 12-week assessment mean” value ([1]; 2 mg kg^−1 per day, 12 weeks, baseline 49.3, lower = better) was 43.1 T-Scores and the “BASC Externalizing problems, 12-week assessment mean” value ([1]; 2 mg kg^−1 per day, 12 weeks, baseline 60.9, lower = better) was 57.7 T-Scores. For the same compound, the “BASC Behavior problems, 12-week assessment mean” value ([1]; 2 mg kg^−1 per day, 12 weeks, baseline 71.1, lower = better) was 65.3 T-Scores, the “BASC Adaptive skills, estimated effect” value ([1]; vs placebo, mixed-model regression, higher = better) was 0.4 T-Scores and the “BASC Behavior problems, estimated effect” value [1, 5] was 0.1 T-Scores. For the same compound, the “BASC Externalizing problems, estimated effect” value [1, 5] was −0.1 T-Scores, the “BASC Internalizing problems, estimated effect” value [1, 5] was −1.1 T-Scores and the “BASC Internalizing problems, estimated effect” value ([1]; vs placebo, mixed-model regression, lower = better, listed as folinic acid) was “significantly improved”. For the same compound, the “Symptoms in children with ASD and low CSF folate concentrations” value [2] was “markedly improves symptoms”, the Adverse effects [3] was “very few adverse effects reported” and the “Improvements in verbal communication, receptive and expressive language, attention, and stereotypical behavior” value [3] was “significant improvements”. For the same compound, the “OACIS Sensory sensitivity, 12-week assessment mean” value ([4]; 2 mg kg^−1 per day, 12 weeks, baseline 1.6) was 1.4 Severity, the “OACIS Restricted interest, 12-week assessment mean” value ([4]; 2 mg kg^−1 per day, 12 weeks, baseline 2.3) was 2.0 Severity and the “OACIS Anxiety, 12-week assessment mean” value ([4]; 2 mg kg^−1 per day, 12 weeks, baseline 2.5) was 2.3 Severity. The “OACIS Repetitive behavior, 12-week assessment mean” value ([4]; 2 mg kg^−1 per day, 12 weeks, baseline 3.2) was 2.5 Severity, the “OACIS Non-verbal communication, 12-week assessment mean” value ([4]; 2 mg kg^−1 per day, 12 weeks, baseline 3.6) was 3.3 Severity and the “OACIS Aberrant behavior, 12-week assessment mean” value ([4]; 2 mg kg^−1 per day, 12 weeks, baseline 3.8) was 3.4 Severity. For the same compound, the “OACIS Hyperactivity, 12-week assessment mean” value ([4]; 2 mg kg^−1 per day, 12 weeks, baseline 4.1) was 3.8 Severity, the “OACIS Social, 12-week assessment mean” value ([4]; 2 mg kg^−1 per day, 12 weeks, baseline 4.3) was 3.8 Severity and the “OACIS Autistic behavior, 12-week assessment mean” value [4, 6] was 4.0 Severity. For the same compound, the “OACIS Verbal communication, 12-week assessment mean” value [4, 6] was 3.8 Severity, the “OACIS Aberrant behavior, estimated effect” value [4, 7] was −0.3 Severity and the “OACIS Anxiety, estimated effect” value [4, 7] was −0.1 Severity. For the same compound, the “OACIS Autistic behavior, estimated effect” value [4, 7] was −0.2 Severity, the “OACIS Hyperactivity, estimated effect” value [4, 7] was −0.3 Severity and the “OACIS Non-verbal communication, estimated effect” value [4, 7] was −0.0 Severity. For the same compound, the “OACIS Repetitive behavior, estimated effect” value [4, 7] was −0.4 Severity, the “OACIS Restricted interest, estimated effect” value [4, 7] was −0.2 Severity and the “OACIS Sensory sensitivity, estimated effect” value [4, 7] was −0.3 Severity. For the same compound, the “OACIS Social, estimated effect” value [4, 7] was −0.1 Severity and the “OACIS Verbal communication, estimated effect” value [4, 7] was −0.2 Severity.
